For assay [1], the target named is T1, SyPII (Synechococcus elongatus, UniProt P0A3F4).
T1 construct: Strep-tag; made in house
Conditions: in presence ADP, given in parentheses for comparison; cited from earlier work.

For assay [2], the target named is PpPII (Porphyra purpurea, UniProt P51254). Briefly: ITC binding of small effector molecules to red algal PpPII. The protocol: (§1) To gain additional insights into the ligand binding properties of PpPII in comparison to cyanobacterial and chloroplastid PII proteins, isothermal titration calorimetry (ITC) experiments were performed using highly purified Strep-tagged or His-tagged recombinant PpPII, SyPII, CrPII, and PhyscoPII proteins (Supplementary Fig. S1) with different protein/ligand/ concentrations to determine the best fitting conditions of the binding model. The titration experiments were repeated with different protein preparations to confirm the reproducibility of the results. The raw isothermal data were fitted into one-binding site as well as three-sequential binding sites to define the best fitting model. Fitting using a one binding site model states an average Kd value for all available binding sites and the mean of the stoichiometry of bound ligands.
Chain of PpPII (P51254 whole entry): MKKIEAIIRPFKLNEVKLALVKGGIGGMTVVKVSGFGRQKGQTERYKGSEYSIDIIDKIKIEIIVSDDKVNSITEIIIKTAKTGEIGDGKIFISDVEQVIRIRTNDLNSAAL
(§2) The ITC experiments were done using a VP-ITC microcalorimeter (MicroCal, LCC). All details for determination of binding constants for small effector molecules using ITC are fully described in the supplementary information. Heat isotherms of the dilution of the ligand in the cell buffer were collected in a blank run for each experiment in the absence of protein. The binding isotherms were calculated from received data and fitted to one-site and three-sequential binding sites models using the MicroCal ORIGIN software (Northampton) as described. All titrations were performed in duplicates with different purification batches of recombinant PII proteins. The association binding constant (Ka) was generated from the software by de-convolution and curve fitting. For calculation of dissociation constant (Kd), the Ka value was inversed.
(§3) Supplementary Information […]
(§4) Determination of Binding Constants for Small Effector Molecules using Isothermal […]
(§5) The binding of the small effector molecules to the recombinant PII proteins was tested using isothermal titration calarmity (ITC); VP-ITC microcalorimeter (MicroCal). All titrations were performed on 20°C using […] injection syringe with injection 6 µl or 10 µl of the tested ligands for 45 or 29 times, respectively into the cell (1.4 ml) with continuous stirring at 155 rpm. All tested ligands were high grade, prepared freshly in the same buffer of the protein and purchased from Sigma-Aldrich. Heat isotherms for the dilution of the ligand in the cell buffer were collected in a blank run in the absence of protein. The received calorimetric data were analyzed using MicroCal Origin software and fitted into one-site and three-sequential binding sites models, as indicated by the manufacture for calculation of binding isotherms9. For data reproducibility, the titrations were performed in duplicates with different purification batches of recombinant PII proteins. The association binding constant (Ka) was generated from the software by de-convolution and curve fitting. For calculation of dissociation constant (Kd), the Ka value was inversed.
For determination the binding isotherms of red algal PpPII protein, a buffer system composed of […]
used. For determination ATP and ADP binding isotherms upon the binding to PpPII protein, His- […]
against 2 mM ATP or 2 mM ADP. For determination of ATP and ADP binding isotherms in […]
concentration) was titrated against 0.5 mM of ATP or 1 mM ADP, respectively. However, for […]
of 1 mM of ATP or 1 mM ADP. […]

For assay [3], the target named is PhyscoPII. Briefly: ITC binding of small effector molecules to plant-moss PhyscoPII. Further details: species or system Physcomitrella patens. How it is done:
as §1, §2, §3, §4, §5
5 mM MgCl2, 0.5 mM EDTA, and 10% glycerol (pH 7.6). […]
For determination the binding isotherms of plant-moss PhyscoPII protein, a strep-tagged recombinant protein (5 or 6 µM trimeric concentration) was used in system composed of 20 mM

Assay [4] concerns the target T1, SyPII. Briefly: ITC binding of small effector molecules to cyanobacterial SyPII. More on the design: species or system Synechococcus elongatus PCC 7942. The protocol: as §1, §2, §3, §4
as §5, with “inversed. […]” for “inversed.”
For determination the binding isotherms of cyanobacterial SyPII protein, a strep-tagged recombinant protein (20 µM trimeric concentration) was overexpressed and used as described previously9, 15, in a buffer composed of 10 mM Hepes-NaOH, 50 mM KCl, 50 mM NaCl, and 1

The target in assay [5] is CrPII. Briefly: ITC binding of small effector molecules to green algal CrPII. Further details: species or system Chlamydomonas reinhardtii. The protocol:
as §1, §2, §3, §4
as §5, with “inversed. […]” for “inversed.”

Assay [6] deals with PpPII-ScNAGK complex (Porphyra purpurea, UniProt P51254). Briefly: Coupled NAGK activity assay, ScNAGK with PpPII. The format is biochemical, Synechocystis sp. PCC 6803; Porphyra purpurea. The note with it: ScNAGK in the presence of PpPII, fixed 10 mM ATP.
Chain of PpPII-ScNAGK complex (P51254 whole entry, one chain of several): as the sequence (P51254 whole entry) above
Procedure: (§6) The assess the activity of ScNAGK was measured with an enzyme assay, in which the ADP production was coupled to the NADH oxidation by the auxiliary enzymes pyruvate kinase and lactate dehydrogenase according to previously described procedure[32],[50]. […] The oxidation reaction of NADH was recorded for 10 min using spectrophotometer (SPECORD 210 PLUS, Analytik Jena AG) at 340 nm. […] The NADH molar absorption coefficient is 6178 L mol^−1 cm^−1 for at 340 nm, which was used for calculation. […] From the velocity slopes, the enzymatic constants Km, Kcat and IC50 were calculated using the Graph-Pad Prism software (GraphPad Software, USA).
For assay [7], the target named is T2, ScNAGK (Synechocystis sp., UniProt P73326).
T2 sequence (P73326 1-297): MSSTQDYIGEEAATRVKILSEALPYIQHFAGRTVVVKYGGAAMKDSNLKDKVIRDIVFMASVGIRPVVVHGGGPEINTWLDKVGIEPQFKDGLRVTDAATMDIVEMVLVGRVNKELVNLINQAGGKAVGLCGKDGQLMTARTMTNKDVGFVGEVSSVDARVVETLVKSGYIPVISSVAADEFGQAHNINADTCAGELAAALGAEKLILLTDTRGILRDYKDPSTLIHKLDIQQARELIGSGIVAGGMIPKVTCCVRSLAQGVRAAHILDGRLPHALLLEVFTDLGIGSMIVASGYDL
Briefly: Coupled NAGK activity assay, ScNAGK. Type of assay: biochemical, Synechocystis sp. PCC 6803.
Procedure: as §6

The mark [8] stands for this setting: titrant alone, read-out: Average Kd (one-site binding model).
The mark [9] stands for this setting: titrant alone, read-out: Kd1 (three-sites binding model).
The mark [10] stands for this setting: titrant alone, read-out: Kd2 (three-sites binding model).
[11] abbreviates: titrant alone, read-out: Kd3 (three-sites binding model).

The structures appear in SMILES notation. “And” between values parts separate entries of the source, which are not always exact repeats. Equal values may be shown once. “Also recorded” adds a separate entry of the source. Read-outs that look alike come from different tables or passages of the source.

As a reminder, the Km is the concentration of substrate that gives half-maximal velocity.

T1 sequence (P0A3F4 whole entry): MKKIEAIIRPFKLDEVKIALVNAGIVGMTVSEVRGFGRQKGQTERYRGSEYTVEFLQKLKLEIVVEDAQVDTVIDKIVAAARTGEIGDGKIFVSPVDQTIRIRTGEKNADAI

With `O=C(O)CCC(=O)C(=O)O` [2-OG, 2-oxoglutarate], the “N, number of calculated binding sites (one-site binding model)” value in assay [1] was “(No binding)”; in assay [2] (in presence ADP (1 mM)), “No binding”; in assay [2] (in presence ATP (1 mM)), 1.0; in assay [4] (in presence ATP (2 mM)) it was 1.4. The “Average Kd (one-site binding model)” value in assay [3] (in presence ATP (1 mM)) was “unable to detect any binding; also recorded: No binding”; in assay [5] (in presence ADP (2 mM)), “never observed binding; also recorded: No binding”. Besides, the “Kd1 (three-sites binding model)” value in assay [3] (in presence ATP (1 mM)) and in assay [5] (in presence ADP (2 mM)) was “No binding” each time. The “Kd2 (three-sites binding model)” value in assay [3] (in presence ATP (1 mM)) and in assay [5] (in presence ADP (2 mM)) was “No binding” throughout. Further, the “Kd3 (three-sites binding model)” value in assay [3] (in presence ATP (1 mM)) and in assay [5] (in presence ADP (2 mM)) was “No binding” each time. Further, the Kd in assay [5] (in presence ATP (2 mM), read-out: Average Kd (one-site binding model)) came out at 15 ± 5.4 µM; in assay [5] (in presence ATP (2 mM), read-out: Kd1 (three-sites binding model)) it was 4.2 ± 0.7 µM; in assay [5] (in presence ATP (2 mM), read-out: Kd2 (three-sites binding model)) it was 21.3 ± 11 µM; in assay [5] (in presence ATP (2 mM), read-out: Kd3 (three-sites binding model)), 45.5 ± 19.8 µM.
With `Nc1ncnc2c1ncn2[C@@H]1O[C@H](COP(=O)(O)OP(=O)(O)OP(=O)(O)O)[C@@H](O)[C@H]1O` [ATP], the Kd in assay [2] (Average Kd (one-site binding model), in presence 2-OG (1 mM)) is 0.2 ± 0.3 µM; in assay [2] (Average Kd (one-site binding model), titrant alone), ~22 µM and 22 µM; in assay [2] (Kd1 (three-sites binding model), in presence 2-OG (1 mM)), 1.4 ± 1.8 µM; in assay [2] (Kd1 (three-sites binding model), titrant alone) it was 0.5 ± 0.2 µM; in assay [2] (Kd2 (three-sites binding model), in presence 2-OG (1 mM)), 1 ± 0.9 µM; in assay [2] (Kd3 (three-sites binding model), in presence 2-OG (1 mM)) it was 83.9 ± 62.4 µM. Further, the Kd came out at 142 ± 80.8 µM in assay [2] (Kd3 (three-sites binding model), titrant alone); 18.7 ± 9.2 µM in assay [2] (read-out: Kd2 (three-sites binding model), titrant alone); 17.6 ± 7.5 µM in assay [3] (in presence 2-OG, read-out: Average Kd (one-site binding model)); 8 ± 6 µM in assay [3] (in presence 2-OG, read-out: Kd1 (three-sites binding model)); 16.3 ± 11.4 µM in assay [3] (in presence 2-OG, read-out: Kd2 (three-sites binding model)); 129 ± 128 µM in assay [3] (in presence 2-OG, read-out: Kd3 (three-sites binding model)). In addition, the Kd in assay [3] (setting [8]) was 26.8 ± 10.5 µM; in assay [3] (setting [9]) it was 5.7 ± 1.4 µM; in assay [3] (setting [10]), 13.6 ± 7.2 µM; in assay [3] (setting [11]), 48.2 ± 29.3 µM; in assay [4] (in presence 2-OG (1 mM), read-out: Average Kd (one-site binding model)), 2.7 ± 0.1 µM; in assay [4] (in presence 2-OG (1 mM), read-out: Kd1 (three-sites binding model)), 0.5 ± 0.5 µM. The Kd was 3 ± 1.7 µM in assay [4] (in presence 2-OG (1 mM), read-out: Kd2 (three-sites binding model)); 325 ± 171 µM in assay [4] (in presence 2-OG (1 mM), read-out: Kd3 (three-sites binding model)); 43.3 ± 37.7 µM in assay [4] (setting [8]); 7.5 ± 7.3 µM in assay [4] (setting [9]); 15.9 ± 12.2 µM in assay [4] (setting [10]); 85.4 ± 74.6 µM in assay [4] (setting [11]). For the same molecule, the Kd in assay [5] (in presence 2-OG (2 mM), read-out: Average Kd (one-site binding model)) stood at 35.8 ± 1.6 µM; in assay [5] (in presence 2-OG (2 mM), read-out: Kd1 (three-sites binding model)), 5.8 ± 5.8 µM; in assay [5] (in presence 2-OG (2 mM), read-out: Kd2 (three-sites binding model)), 53.1 ± 58.3 µM; in assay [5] (in presence 2-OG (2 mM), read-out: Kd3 (three-sites binding model)) it was 61.6 ± 9.7 µM. For the same molecule, the “N, number of calculated binding sites (one-site binding model)” value in assay [2] (in presence 2-OG (1 mM)) is recorded as 1.0; in assay [2] (titrant alone, per PII trimer) it was 2.5; in assay [4] (in presence 2-OG (1 mM)), 1.8; in assay [4] (titrant alone), 3.2. Moreover, the “Average Kd (one-site binding model)” value in assay [5] (titrant alone) is “unable to notice any binding; also recorded: No binding”. Moreover, in assay [5] (titrant alone), the “Kd1 (three-sites binding model)” value was “No binding”. For the same molecule, the “Kd2 (three-sites binding model)” value in assay [5] (titrant alone) is on record as “No binding”. For the same molecule, the “Kd3 (three-sites binding model)” value in assay [5] (titrant alone) is given as “No binding”.
In the case of `CC(=O)N[C@@H](CCC(=O)O)C(=O)O` [NAG, N-acetyl glutamate], the Kcat in assay [6] (NAG variable substrate) is 10.02 ± 1.11 s⁻¹; in assay [7] (free ScNAGK, NAG variable substrate, fixed 10 mM ATP) it was 8.93 ± 1.40 s⁻¹. Also, the Km in assay [6] (read-out: apparent Km for NAG) came to 4.25 ± 0.36 mM; in assay [7] (read-out: Km value for N-acetyl glutamate (NAG), free ScNAGK, fixed 10 mM ATP) it was 16.2 ± 2.14 mM.
As for `N=C(N)NCCC[C@H](N)C(=O)O` [arginine], the IC50 in assay [7] (read-out: Feedback inhibition of ScNAGK, half maximal inhibitory concentration (IC50)) came to 6.2 µM.

Source of the values: publication PMC5768801, “The PII signaling protein from red algae represents an evolutionary link between cyanobacterial and Chloroplastida PII proteins” (Scientific Reports, 2018).
